Measurements: patent US6426330B1, “Satiety inducing composition comprising Neuropeptide Y analogues and methods of inducing satiety and treating a disease or condition associated with it” (East Carolina University, priority 1995, dated 2002)
Square brackets hold non-standard residues; d marks the D form. Ends that are not written are not given here.

Test system: normotensive Sprague-Dawsley rats
Assay: In vivo activity: blood pressure and heart rate after intravenous dosing in catheterised rats
Parameters: species or system rat
Method: Male Sprague-Dawley rats obtained from Charles River Laboratories, Wilmington, Mass., and weighing 276-300 g, were group housed at 22° C. and kept on 12 hour light/dark cycle. Food and water were provided ad lib.
Animals were anesthetized with sodium pentobarbital (65 mg/kg) and under sterile conditions a one-inch incision was made in the fold of the left leg to expose the femoral blood vessels. Two lengths of PE-50 tubing filled with 10% heparin were inserted into the left femoral artery and left femoral vein for measurement of blood pressure and for drug delivery, respectively. The tubings were tunneled under the skin and exposed through the mid-scapular region. Animals were allowed at least 24 hours recovery prior to experiments.
A force transducer (Spectramed Model P23XL, Grass Instruments, Quincy, Mass., USA), and tachograph (Model 7P44D, Grass Instruments) was used for recording of systolic and diastolic pressures and heart rate from the femoral artery catheter. Patency of catheters was verified by flushing with either saline or 10% heparin.
A dose of either 30, 100, 500, 800 or 1000 nM/kg ([…]) of NPY27-36 (D-Tyr^27,36, D-Thr^32) (prepared as described in Example 1 above), or saline was delivered to the animal via the catheter in the left femoral vein. Changes in systolic and diastolic pressures and heart rater were recorded from the catheter in the left femoral artery over a 10 minute time interval.

[1] = given intraveneously, doses 30-1000 nM/kg, recorded over 10 minutes, normotensive rats

Substance: [dY]INLI[dT]RQR[dY]-NH2 [NPY27-36 (D-Tyr^27,36, D-Thr^32)]
- changes in mean arterial pressure and heart rate vs saline (dose 30 nM/kg i.v.): failed to produce changes that were significantly different from saline treatment
- changes in mean arterial pressure and heart rate vs saline (dose 100 nM/kg i.v.): failed to produce changes that were significantly different from saline treatment
- mean arterial pressure vs saline-treated controls (dose 500 nM/Kg i.v.): significantly different decreases
- heart rate vs saline controls (dose 500 nM/kg i.v.): significantly different increases
- mean arterial pressure vs saline-treated controls (dose 800 nM/Kg i.v.): significantly different decreases
- mean arterial pressure vs saline-treated controls (dose 1000 nM/Kg i.v.): significantly different decreases
- heart rate vs saline controls (dose 1000 nM/kg i.v.): significantly different increases
- heart rate [1]: increase
- mean arterial pressure [1]: dose-dependent decrease
